Experimental data: patent US7183291B2 (Council of Scientific and Industrial Research, priority 1999, dated 2007)
“And” between values parts separate entries of the source, which are not always exact repeats. Equal entries are not always repeated.

Assays:
[1] = test system: P. cynomolgi B gametocytes; test: Gametocytocidal test: infectivity of gametocytes from treated P. cynomolgi infected Rhesus monkeys to An. stephensi mosquitoes; format: in vivo
Protocol: For the gametocytocidal test, batches of 3–4 day old An. Stephensi were allowed to feed on P. cynomolgi infected Rhesus monkeys at appropriate gametocytaemia level. […] […] Mosquitoes were maintained as 26±1° C. under optimal insectary conditions. The infectivity rate and the oocyst counts were recorded on day 8. Mosquitoes were further maintained in the insectary to record the formation of sporozoites and the absence of sporozoites in some of the batches was also ensured by inoculation of mosquito homogenates into native monkeys.

[2] = Methaemoglobin levels in Beagle dogs after 7-day oral treatment
Protocol: Colony bred beagle dogs were maintained in the kennel house of the Institute and fed with a standard diet.
Treatment was administered once daily for seven doses (day 0–6), the day of the first dose being day 0. […] 5 ml. blood was collected from beagle dogs on day 0, 3, 7, 13 and 25 using potassium-oxalate crystals as anticoagulant. All the estimations/tests were conducted on the same day of collection of blood. Methaemoglobin was assayed by the method of Evelyn and Malloy (1938, J. Biol. Chem., 126, 655–662).

normal erythrocytes = test: Reduced glutathione (GSH) in normal human erythrocytes after 3 h incubation; format: cell-based
From the text: (§1) Drug induced haemolysis is a serious complication in persons deficient in G-6-PD enzyme. The presence of reduced glutathione (GSH) in erythrocytes control the level of oxidative metabolites. Therefore, drugs, which cause lesser oxidation of GSH level are safe. […] G-6-PD deficiency was detected by the fluorescent spot screening test and confirmed by the enzyme assay method. Heparinised blood samples were collected from each individual and after centrifugation, the packed cells were washed three times with cold saline. […] GSH levels were estimated by the method of Bentler et al [Improved Method for the Determination of Blood Glutathione, J. Lab.

[3] = test system: G-6-PD deficient erythrocytes; test: Reduced glutathione (GSH) in G-6-PD deficient human erythrocytes after 3 h incubation; format: cell-based; details: 25 and 50 μg/ml of PQ and equivalent doses, P<0.001
From the text: as §1

rodent malaria [4] = details: in vivo; cited from earlier work
rodent malaria [5] = details: in vivo; cited from earlier work; remark: listed apart in the source
rodent malaria [6] = details: given directly to the insect; cited from earlier work
[7] = oral labelled primaquine; cited from earlier work
[8] = 1.00 mg/kg at 0 hr, feeding +24 hr
[9] = 1.00 mg/kg at 0 hr, feeding +48 hr
[10] = 1.00 mg/kg at 0 hr, feeding −1 hr (pre-treatment)
[11] = 3.16 mg/kg at 0 hr, feeding +24 hr
[12] = 3.16 mg/kg at 0 hr, feeding −1 hr (pre-treatment)

COc1cc(NC(C)CCCN)c2ncccc2c1 (stereo not drawn) [Primaquine, 8-(4-amino-1-methylbutylamino)-6-methoxy quinoline, reference compound]
loss of infectivity ([1]; 1.00 mg/kg): ~98%
No. of mosquitoes infected/dissected ([1]; 1.00 mg/kg at 0 hr, feeding +5 hr): 32/44 and 36/46
No. of mosquitoes infected/dissected [1, 8]: 0/55 and 3/45
Parasitaemia/mm^3 Asexual [1, 8]: 28048 /mm^3 and 26832 /mm^3
% infectivity [1, 9]: (0) %
No. of mosquitoes infected/dissected [1, 9]: 0/40
Parasitaemia/mm^3 Asexual [1, 9]: 15332 /mm^3 and 12140 /mm^3
oocyst no. per gut (Mean ± SD) [1, 9]: Nil
No. of mosquitoes infected/dissected [1, 10]: 25/34 and 32/40
Parasitaemia/mm^3 Asexual [1, 10]: 42394 /mm^3 and 36166 /mm^3
No. of mosquitoes infected/dissected ([1]; 3.16 mg/kg at 0 hr, feeding +5 hr): 0/53 and 15/46
% infectivity [1, 11]: (0) %
No. of mosquitoes infected/dissected [1, 11]: 0/33 and 0/43
Parasitaemia/mm^3 Asexual [1, 11]: 23112 /mm^3 and 21204 /mm^3
Parasitaemia/mm^3 Gametocytes [1, 11]: 749 /mm^3 and 670 /mm^3
oocyst no. per gut (Mean ± SD) [1, 11]: Nil
No. of mosquitoes infected/dissected [1, 12]: 37/51 and 20/47
Parasitaemia/mm^3 Asexual [1, 12]: 29680 /mm^3 and 16824 /mm^3
Parasitaemia/mm^3 Gametocytes [1, 12]: 1230 /mm^3 and 1026 /mm^3
gametocytocidal action ([1]; 3.16 mg/kg, +24 hr): complete gametocytocidal action
increase of mean Met-Hb values over day 0 ([2]; Group I, 1.0 mg/kg, day 7): 3.7 fold
increase of Met-Hb over corresponding day 0 value ([2]; Group II, 3.0 mg/kg): 10.5 fold
concentration at which fall in GSH levels reached statistical significance (normal erythrocytes): 10000 ng/mL
GSH (mg %) Mean ± SE (normal erythrocytes; dose 1.00 μg/ml): 43.50 ± 5.70 mg %
GSH (mg %) Mean ± SE (normal erythrocytes; dose 5.00 μg/ml): 39.00 ± 6.16 mg %
decrease in GSH level compared to controls [3]: statistically significant
blood schizontocidal activity (rodent malaria [4]): has blood schizontocidal activities
gametocytocidal activity (rodent malaria [5]): very potent gametocytocidal agent
direct sporontocidal activity (rodent malaria [6]): quite inactive
radioactivity found in liver tissue [7]: 45%
